Values joined by “and” are separate entries in the source; they are usually repeats but may differ in a detail not shown here. Identical values can stand only once.
Target: T1, HEK 293 GPR73 (prokineticin 1 receptor) expressing cells (Homo sapiens, UniProt Q8TCW9)
T1 construct: expressed in transfected cells; host or cells: HEK 293
Assay: PK1 functional assay: screening for PK1 antagonists on the FLIPR (calcium fluorescence)
Type: cell-based
Details: HEK 293 GPR73 cells; for inhibition at 10 µM: HEK293, compound at 10 μM, read-out: Ca^2+ Mobilization % Inh @10 μM; for inhibition at 10 µM / Ca^2+ Mobilization % Inh @10 μM: multiple values = repeat tests; for IC50: PK1 ligand at EC50, multiple values = repeat tests, read-out: Ca^2+ Mobilization IC50; for Ca^2+ Mobilization % Inh @10 μM: compound at 10 μM
Description: At a time of 24 h prior to running the assay, in cell culture media (DMEM containing high Glucose and L-glutamine, 10% FBS, 1% Pen/Streptomycin, 1% Sodium Pyruvate, 20 mM HEPES, Zeocin 200 mg/L), 100 μL of 1.3*10^6/ml HEK 293 GPR73 (prokineticin 1 receptor) expressing cells were plated in a 96 well poly-d-lysine coated plate (Costar), and incubated at 37 C and 5% CO2. On the day in which the assay was run, the media was removed and 200 μL of 5× Calcium Plus Dye (Molecular Devices) which was previously resuspended with 200 mL of assay buffer [HBSS w/Ca^2+ and Mg^2+ w/o phenol red, 20 mM HEPES, 0.1% BSA, 10 mL probenecid (710 mg probenecid in 5 mL of 1N NaOH, to which was then added 5 mL HBSS containing 20 mM HEPES)] was added to each well of the 96-well plate. The plate was incubated at 37 C and 5% CO2 for 30 min in dark. The plate was removed and allowed to reach RT for 15 min in the dark. The assay was then run on the FLIPR. […] Baseline is described as the amount of relative fluorescence read when buffer alone is added to cells. Baseline was subtracted from all wells. Percent of control was calculated as follows:
(Baseline subtracted well value is divided by baseline subtracted max value)*100.
Percent inhibition is 100 minus the percent of control value.
IC50 values were calculated using GraphPad Prism.
Table 2 includes data generated from the PK1 functional assay described in Example 2.

T1 sequence (Q8TCW9 whole entry): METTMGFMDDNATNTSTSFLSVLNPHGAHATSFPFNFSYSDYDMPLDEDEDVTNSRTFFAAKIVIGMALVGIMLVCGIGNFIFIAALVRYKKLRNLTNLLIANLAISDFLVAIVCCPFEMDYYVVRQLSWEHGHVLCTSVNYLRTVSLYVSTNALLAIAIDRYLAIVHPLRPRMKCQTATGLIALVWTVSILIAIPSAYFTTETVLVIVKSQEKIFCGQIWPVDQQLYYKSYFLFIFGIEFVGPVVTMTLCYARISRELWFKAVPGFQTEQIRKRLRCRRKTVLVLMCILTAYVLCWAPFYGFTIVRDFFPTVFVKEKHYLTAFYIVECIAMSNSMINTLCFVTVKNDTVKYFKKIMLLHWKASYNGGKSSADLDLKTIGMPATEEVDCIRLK

| SMILES | inhibition at 10 µM | IC50 | Ca^2+ Mobilization % Inh @10 μM (10 µM) | Ca^2+ Mobilization % Inh @10 μM |
| --- | --- | --- | --- | --- |
| COc1ccc(Cn2c(N[C@@H]3CCCC[C@H]3NC(=N)N)nc(=O)n(Cc3ccc(Cl)cc3)c2=O)cc1 [Cpd 56] | 98% | 61 nM |  |  |
| N=C(N)NCCNc1nc(=O)n(Cc2ccc(Cl)c(Cl)c2)c(=O)n1Cc1cccc(OC(F)F)c1 [Cpd 57] | 51% | 8210 nM |  |  |
| COc1ccc(Cn2c(NCCNC(=N)Nc3ccc(C(F)(F)F)cc3)nc(=O)n(Cc3ccc(Cl)c(Cl)c3)c2=O)cc1 [Cpd 74] | 100% | 138 nM |  |  |
| COc1ccc(Cn2c(NCCNC(=N)Nc3ccc(C(C)=O)cc3)nc(=O)n(Cc3ccc(Cl)c(Cl)c3)c2=O)cc1 [Cpd 76] | 93% | 230 nM |  |  |
| COc1ccc(Cn2c(NCCNC(=N)N)nc(=O)n(Cc3ccoc3)c2=O)cc1 [Cpd 77] | 81% | 789 nM |  |  |
| COc1ccc(Cn2c(NCCNC(=N)N)nc(=O)n(Cc3cccs3)c2=O)cc1 [Cpd 78] | 89% | 300 nM |  |  |
| COc1ccc(Cn2c(NCCNC(=N)N)nc(=O)n(C(C)c3ccc(OC)cc3)c2=O)cc1 (stereo not shown) [Cpd 79] | 101% | 71 nM |  |  |
| COc1ccc(Cn2c(NCCNC(=N)N)nc(=O)n(Cc3ccc(OC(F)F)cc3)c2=O)cc1 [Cpd 80] | 100% | 71 nM |  |  |
| COc1ccc(Cn2c(NCCNC(=N)N)cc(=O)n(Cc3ccccc3)c2=O)cc1 [Cpd 81, N-{2-[1-Benzyl-3-(4-methoxy-benzyl)-2,6-dioxo-1,2,3,6-tetrahydro-pyrimidin-4-ylamino]-ethyl}-guanidine] | 84% | 452 nM |  |  |
| C=CCC(c1ccc(OC)cc1)n1c(=O)nc(NCCNC(=N)N)n(Cc2ccc(OC)cc2)c1=O (stereo not shown) [Cpd 82] | 84% | 498 nM |  |  |
| C=CCC(c1ccc(Cl)cc1)n1c(=O)nc(NCCNC(=N)N)n(Cc2ccc(OC)cc2)c1=O (stereo not shown) [Cpd 83] | 80% | 988 nM |  |  |
| COc1ccc(Cn2c(NCCNC(=N)N)cc(=O)n(Cc3ccc(OC)cc3)c2=O)cc1 [Cpd 84, N-{2-[1,3-Bis-(4-methoxy-benzyl)-2,6-dioxo-1,2,3,6-tetrahydro-pyrimidin-4-ylamino]-ethyl}-guanidine] | 99% | 42 nM |  |  |
| COc1ccc(Cn2c(=O)nc(NCCNC(=N)N)n(CC3CCC(OC)CC3)c2=O)cc1 (stereo not shown) [Cpd 86] | 61% | 3260 nM |  |  |
| N=C(N)NCCNc1nc(=O)n(Cc2ccc(F)cc2)c(=O)n1Cc1ccc([N+](=O)[O-])cc1 [Cpd 87] | 38% | > 10000 nM |  |  |
| COc1ccc(Cn2c(NCCNC(=N)NCCN3CCOCC3)nc(=O)n(Cc3ccc(F)cc3)c2=O)cc1 [Cpd 88] | 59% | 4740 nM |  |  |
| COc1ccc(Cn2c(NCCNC(=N)NCCCN3CCOCC3)nc(=O)n(Cc3ccc(F)cc3)c2=O)cc1 [Cpd 89] | 46% | 9070 nM |  |  |
| COc1ccc(Cn2c(NCCN(C(=N)N)c3ccc(C#N)cc3)nc(=O)n(Cc3ccc(F)cc3)c2=O)cc1 [Cpd 90, N-(4-Cyano-phenyl)-N-{2-[5-(4-fluoro-benzyl)-1-(4-methoxy-benzyl)-4,6-dioxo-1,4,5,6-tetrahydro-[1,3,5]triazin-2-ylamino]-ethyl}-guanidine] |  | 31 nM and 43 nM | 100% and 101% |  |
| COc1ccc(Cn2c(NCCNC(=N)Nc3ccc([N+](=O)[O-])cc3)nc(=O)n(Cc3ccc(F)cc3)c2=O)cc1 [Cpd 91] | 101% | 54 nM |  |  |
| COc1ccc(Cn2c(NCCNC(=N)Nc3ccc4c(c3)OCO4)nc(=O)n(Cc3ccc(F)cc3)c2=O)cc1 [Cpd 92] | 97% | 40 nM |  |  |
| COc1ccc(Cn2c(NCCNC(=N)NN)nc(=O)n(Cc3ccc(F)cc3)c2=O)cc1 [Cpd 93, N-{2-[5-(4-Fluoro-benzyl)-1-(4-methoxy-benzyl)-4,6-dioxo-1,4,5,6-tetrahydro-[1,3,5]triazin-2-ylamino]-ethyl}-AN-amino-guanidine] | 92% | 227 nM |  |  |
| COc1ccc(Cn2c(NCCNC(=N)N)nc(=O)n(Cc3cccc([N+](=O)[O-])c3)c2=O)cc1 [Cpd 94] | 60% | 4800 nM |  |  |
| COc1ccc(Cn2c(NCCNC(=N)N)nc(=O)n(Cc3ccc([N+](=O)[O-])cc3)c2=O)cc1 [Cpd 95, N-{2-[1-(4-Methoxy-benzyl)-5-(4-nitro-benzyl)-4,6-dioxo-1,4,5,6-tetrahydro-[1,3,5]triazin-2-ylamino]-ethyl}-guanidine] | 96% | 84 nM |  |  |
| COc1ccc(Cn2c(NCCNC(=N)N)nc(=O)n(Cc3cccc(N)c3)c2=O)cc1 [Cpd 96] | 43% | > 10000 nM |  |  |
| COc1ccc(Cn2c(NCCNC(=N)N)nc(=O)n(Cc3ccc(C#N)cc3)c2=O)cc1 [Cpd 97] | 86% | 318 nM |  |  |
| COc1ccc(Cn2c(NCCNC(=N)N)nc(=O)n(Cc3cccc(C#N)c3)c2=O)cc1 [Cpd 98] | 34% | > 10000 nM |  |  |
| [H]/N=C(\N)NCCNc1nc(=O)n(Cc2ccc(C(=O)OC)cc2)c(=O)n1Cc1ccc(OC)cc1 [Cpd 99] | 73% | 794 nM |  |  |
| COC(=O)c1cccc(Cn2c(=O)nc(NCCNC(=N)N)n(Cc3ccc(OC)cc3)c2=O)c1 [Cpd 100] | 48% | 8820 nM |  |  |

Now from value to molecule:

| inhibition at 10 µM | IC50 | Ca^2+ Mobilization % Inh @10 μM (10 µM) | Ca^2+ Mobilization % Inh @10 μM | SMILES |
| --- | --- | --- | --- | --- |
|  | 16 nM | 102% and 99% and 98% |  | COc1ccc(Cn2c(NCCN(C(=N)N)C(C)C)nc(=O)n(Cc3ccc(Cl)c(Cl)c3)c2=O)cc1 [Cpd 58, N-{2-[5-(3,4-Dichloro-benzyl)-1-(4-methoxy-benzyl)-4,6-dioxo-1,4,5,6-tetrahydro-[1,3,5]triazin-2-ylamino]-ethyl}-N-isopropyl-guanidine] |
| 99% | 50 nM and 35 nM | 100% |  | CCN(CCNc1nc(=O)n(Cc2ccc(Cl)c(Cl)c2)c(=O)n1Cc1ccc(OC)cc1)C(=N)N [Cpd 59] |
| 100% | 54 nM |  |  | COc1ccc(Cn2c(NCCN3CCNC3=N)nc(=O)n(Cc3ccc(Cl)c(Cl)c3)c2=O)cc1 [Cpd 60, 3-(3,4-Dichloro-benzyl)-6-[2-(2-imino-imidazolidin-1-yl)-ethylamino]-1-(4-methoxy-benzyl)-1H-[1,3,5]triazine-2,4-dione] |
| 102% | 45 nM |  |  | CCCCNC(=N)NCCNc1nc(=O)n(Cc2ccc(Cl)c(Cl)c2)c(=O)n1Cc1ccc(OC)cc1 [Cpd 61] |
| 98% | 59 nM |  |  | COc1ccc(Cn2c(NCCNC(=N)NC3CCCCC3)nc(=O)n(Cc3ccc(Cl)c(Cl)c3)c2=O)cc1 [Cpd 62] |
| 101% | 120 nM |  |  | COc1ccc(Cn2c(NCCNC(=N)NCc3ccccc3)nc(=O)n(Cc3ccc(Cl)c(Cl)c3)c2=O)cc1 [Cpd 63] |
| 100% | 72 nM |  |  | COc1ccc(Cn2c(NCCNC(=N)NCC3CCCO3)nc(=O)n(Cc3ccc(Cl)c(Cl)c3)c2=O)cc1 (stereo not shown) [Cpd 64] |
|  | 485 nM |  | 88% | COc1ccc(Cn2c(NCCNC(=N)NCCc3ccccc3)nc(=O)n(Cc3ccc(Cl)c(Cl)c3)c2=O)cc1 [Cpd 65] |
| 99% | 23 nM |  |  | COc1ccc(Cn2c(NCCNC(=N)NCc3ccco3)nc(=O)n(Cc3ccc(Cl)c(Cl)c3)c2=O)cc1 [Cpd 66] |
| 99% | 18 nM |  |  | COCCNC(=N)NCCNc1nc(=O)n(Cc2ccc(Cl)c(Cl)c2)c(=O)n1Cc1ccc(OC)cc1 [Cpd 67] |
| 84% | 1210 nM |  |  | COc1ccc(Cn2c(NCCCNC(=N)N)nc(=O)n(Cc3ccc(Cl)c(Cl)c3)c2=O)cc1 [Cpd 68] |
| 101% | 9 nM and 7 nM |  | 101, 101% | C=CCNC(=N)NCCNc1nc(=O)n(Cc2ccc(Cl)c(Cl)c2)c(=O)n1Cc1ccc(OC)cc1 [Cpd 70] |
| 100% | 12 nM and 7 nM | 99% |  | COc1ccc(Cn2c(NCCNC(=N)Nc3ccccc3)nc(=O)n(Cc3ccc(Cl)c(Cl)c3)c2=O)cc1 [Cpd 71] |
| 100% | 64 nM |  |  | COc1ccc(Cn2c(NCCNC(=N)Nc3ccc(OC)cc3)nc(=O)n(Cc3ccc(Cl)c(Cl)c3)c2=O)cc1 [Cpd 72] |
| 100% | 39 nM |  |  | COc1ccc(Cn2c(NCCNC(=N)Nc3ccc(Cl)cc3)nc(=O)n(Cc3ccc(Cl)c(Cl)c3)c2=O)cc1 [Cpd 73] |
| 101% | 36 nM |  |  | COc1ccc(Cn2c(NCCNC(=N)Nc3cccnc3)nc(=O)n(Cc3ccc(Cl)c(Cl)c3)c2=O)cc1 [Cpd 75] |
| 96% | 51 nM |  |  | COc1ccc(Cn2c(=O)nc(NCCNC(=N)N)n(Cc3ccc(OC)nc3)c2=O)cc1 [Cpd 85] |

Reference: patent US20080045535A1, “Prokineticin 2 receptor antagonists” (priority 2005, published 2008)
